Test results published in PubChem BioAssay AID1963849 (Molecular Pharmacology Branch, DTP, NCI, 2024).

System: 299254-011-R-J1-PDC complex spheroid viability
Assay: Anticancer human tumor 299254-011-R-J1-PDC patient-derived melanoma cell line growth inhibition [POLQ]
Conditions: for IC50: curve of first compound; for viability, T/C: stronger effect = lower value
Procedure: Multicellular complex tumor spheroid response to Polymerase (POL) inhibitors (novobiocin, ART-558, RP6685) in combination with a variety of drugs and investigational agents in selected tumor cell lines
The POL inhibitors (novobiocin, ART-558, and RP6685) were evaluated both individually and in combination with standard of care and investigational anticancer small molecules within a complex spheroid model of solid tumors. . Complex spheroids include a stromal component modeled by human endothelial cells (HUVEC) and fibroblasts modeled by human mesenchymal stem cells (MSCs). The concentration ranges selected for each drug and investigational agent were based upon clinically achievable concentrations if the clinical Cmax of the agent was known.
Compounds. The drugs and investigational agents: novobiocin (NSC847541), ART-558 (NSC835418), RP-6685 (NSC848927), peposertib (NSC802822), ceralasertib (NSC780249), elimusertib (NSC800525), camonsertib (NSC841442), AZD-1390 (NSC803789), olaparib (NSC753686), talazoparib (NSC767125), rucaparib (NSC756644), sotorasib (NSC818433), MRTX-1133 (NSC836407), SN-38 (NSC673596), topotecan (NSC609699), epotoside (NSC141540), doxorubicin (NSC123127), gemcitabine (NSC613327), 5-fluorouracil (NSC19893), paclitaxel (NSC125973), vemurafenib (NSC761431), MSA-2 (NSC828583), SN-011 (NSC837082), adavosertib (NSC754352), prexasertib (NSC758257), carboplatin (NSC241240) and oxaliplatin (NSC266046), were obtained from the National Cancer Institute (NCI) Developmental Therapeutics Program Chemical Repository (21). The FDA-approved anticancer drug set is available from the Developmental Therapeutics Program at https://dtp.cancer.gov/organization/dscb/obtaining/. […] The stock solutions were prepared in dimethyl sulfoxide (DMSO, Sigma-Aldrich, St. Louis, MO, cat. D2650), except for the platinum compounds which were prepared in saline (Quality Biological, Gaithersburg, MD, cat. 114-055-101), at 800-fold the tested concentration and stored at -70 degrees C prior to their use. All drugs and investigational agents were tested over a range starting from a high concentration at or near the clinical Cmax and decreasing in half-log increments. If the clinical Cmax for an agent had not been determined, the highest concentration tested was 10 microM, except for SN-38, which was tested at a high concentration of 1 microM.
Cell Culture. All cells were maintained in an incubator at 37 degrees C and 5% CO2 with 95% humidity. The PDC lines were cultured according to standard operating procedures established by the NCI PDMR (https://pdmr.cancer.gov). Table 3 of the manuscript, lists the cell lines along with the number of the three cell types plated to form the mct-spheroids and media for tumor cell growth. After thawing, all PDC lines, except 997537-175-T-J1-PDC and 415267-285-R-J2-PDC, were cultured in Matrigel-coated flasks prepared with a working solution of 1X Ham's F-12 nutrient mix, without supplementation (Thermo Fisher Scientific, cat. 11765054), 100 U/mL penicillin-streptomycin (Thermo Fisher Scientific, cat. 15140122), and 2.5% Matrigel (Corning Inc., Corning, NY, cat. 354248) for the first three passages. The two PDC lines 997537-175-T-J1-PDC and 415267-285-R-J2-PDC were cultured on uncoated flasks. The 857933-349-R-J2-PDC line was cultured in 6C/Colon 1B media containing advanced DMEM/F-12 (Thermo Fisher Scientific, cat. 12634028), 10 mM HEPES (Thermo Fisher Scientific, cat. 15630080), 1X GlutaMAX supplement (Thermo Fisher Scientific, cat. 35050061), 0.1 mg/mL primocin (InvivoGen, San Diego, CA, cat. ant-pm-2), 10% defined fetal bovine serum, heat inactivated (HyClone Laboratories Inc., Logan, UT, cat. SH30070.03HI), 50% L-WRN conditioned media (ATCC, cat. CRL-3276), 1.25 mM N-Acetyl-L-cysteine (Sigma-Aldrich, cat. A9165), 10 mM nicotinamide (Sigma-Aldrich, cat. N0636), 1X B-27 supplement (Thermo Fisher Scientific, cat. 17504044), 1X N-2 supplement (Thermo Fisher Scientific, cat. […]

[1] = second compound 0.0316 µM, first compound 0.0316 µM
[2] = second compound 0.0316 µM, first compound 0.1 µM
[3] = second compound 0.0316 µM, first compound 0.316 µM
[4] = second compound 0.0316 µM, first compound 1 µM
[5] = second compound 0.0316 µM, first compound 3.16 µM
[6] = second compound 0.0316 µM, first compound 10 µM
[7] = second compound 0.1 µM, first compound 0.0316 µM
[8] = second compound 0.1 µM, first compound 0.1 µM
[9] = second compound 0.1 µM, first compound 0.316 µM
[10] = second compound 0.1 µM, first compound 1 µM
[11] = second compound 0.1 µM, first compound 3.16 µM
[12] = second compound 0.1 µM, first compound 10 µM
[13] = second compound 0.316 µM, first compound 0.0316 µM
[14] = second compound 0.316 µM, first compound 0.1 µM
[15] = second compound 0.316 µM, first compound 0.316 µM
[16] = second compound 0.316 µM, first compound 1 µM
[17] = second compound 0.316 µM, first compound 3.16 µM
[18] = second compound 0.316 µM, first compound 10 µM
[19] = second compound 1 µM, first compound 0.0316 µM
[20] = second compound 1 µM, first compound 0.1 µM
[21] = second compound 1 µM, first compound 0.316 µM
[22] = second compound 1 µM, first compound 1 µM
[23] = second compound 1 µM, first compound 3.16 µM
[24] = second compound 1 µM, first compound 10 µM
[25] = second compound 3.16 µM, first compound 0.0316 µM
[26] = second compound 3.16 µM, first compound 0.1 µM
[27] = second compound 3.16 µM, first compound 0.316 µM
[28] = second compound 3.16 µM, first compound 1 µM
[29] = second compound 3.16 µM, first compound 3.16 µM
[30] = second compound 3.16 µM, first compound 10 µM
[31] = second compound 10 µM, first compound 0.0316 µM
[32] = second compound 10 µM, first compound 0.1 µM
[33] = second compound 10 µM, first compound 0.316 µM
[34] = second compound 10 µM, first compound 1 µM
[35] = second compound 10 µM, first compound 3.16 µM
[36] = second compound 10 µM, first compound 10 µM
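Also: spheroids exposed to drugs for one week before measurement.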
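For viability, T/C in this document: percent viability relative to DMSO vehicle control taken as 100%.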

## CCc1cc2c(N3CCc4c(cc(Cn5ccnc5)cc4-c4cn(C)nc4C(F)(F)F)C3=O)cc(C)nc2c(OC)n1 + COC1C(OC(N)=O)C(O)C(Oc2ccc3c(O)c(NC(=O)c4ccc(O)c(CC=C(C)C)c4)c(=O)oc3c2C)OC1(C)C
Second compound 0.0316 µM
  IC50: > 10 µM
Second compound 0.1 µM
  IC50: > 10 µM
Second compound 0.316 µM
  IC50: > 10 µM
Second compound 1 µM
  IC50: > 10 µM
Second compound 3.16 µM
  IC50: > 10 µM
Second compound 10 µM
  IC50: > 10 µM
[1]
  viability, T/C: 96.8%
[2]
  viability, T/C: 96.1%
[3]
  viability, T/C: 109%
[4]
  viability, T/C: 81.1%
[5]
  viability, T/C: 91.5%
[6]
  viability, T/C: 69.5%
[7]
  viability, T/C: 99.8%
[8]
  viability, T/C: 95.3%
[9]
  viability, T/C: 104%
[10]
  viability, T/C: 108%
[11]
  viability, T/C: 107%
[12]
  viability, T/C: 63.9%
[13]
  viability, T/C: 107%
[14]
  viability, T/C: 121%
[15]
  viability, T/C: 103%
[16]
  viability, T/C: 106%
[17]
  viability, T/C: 88.4%
[18]
  viability, T/C: 66.8%
[19]
  viability, T/C: 116%
[20]
  viability, T/C: 110%
[21]
  viability, T/C: 114%
[22]
  viability, T/C: 99.6%
[23]
  viability, T/C: 94.5%
[24]
  viability, T/C: 67.4%
[25]
  viability, T/C: 106%
[26]
  viability, T/C: 107%
[27]
  viability, T/C: 100%
[28]
  viability, T/C: 106%
[29]
  viability, T/C: 99.2%
[30]
  viability, T/C: 70.6%
[31]
  viability, T/C: 96.3%
[32]
  viability, T/C: 105%
[33]
  viability, T/C: 110%
[34]
  viability, T/C: 106%
[35]
  viability, T/C: 93.5%
[36]
  viability, T/C: 73.9%

## CCc1cc2c(N3CCc4c(cc(Cn5ccnc5)cc4-c4cn(C)nc4C(F)(F)F)C3=O)ccnc2c(OC)n1 + COC1C(OC(N)=O)C(O)C(Oc2ccc3c(O)c(NC(=O)c4ccc(O)c(CC=C(C)C)c4)c(=O)oc3c2C)OC1(C)C
Second compound 0.0316 µM
  IC50: > 10 µM
Second compound 0.1 µM
  IC50: > 10 µM
Second compound 0.316 µM
  IC50: > 10 µM
Second compound 1 µM
  IC50: > 10 µM
Second compound 3.16 µM
  IC50: > 10 µM
Second compound 10 µM
  IC50: > 10 µM
[1]
  viability, T/C: 115%
[2]
  viability, T/C: 104%
[3]
  viability, T/C: 111%
[4]
  viability, T/C: 116%
[5]
  viability, T/C: 107%
[6]
  viability, T/C: 82.2%
[7]
  viability, T/C: 110%
[8]
  viability, T/C: 105%
[9]
  viability, T/C: 101%
[10]
  viability, T/C: 85.2%
[11]
  viability, T/C: 92.2%
[12]
  viability, T/C: 71.3%
[13]
  viability, T/C: 93%
[14]
  viability, T/C: 121%
[15]
  viability, T/C: 101%
[16]
  viability, T/C: 95.8%
[17]
  viability, T/C: 101%
[18]
  viability, T/C: 91.4%
[19]
  viability, T/C: 107%
[20]
  viability, T/C: 110%
[21]
  viability, T/C: 106%
[22]
  viability, T/C: 106%
[23]
  viability, T/C: 113%
[24]
  viability, T/C: 84.7%
[25]
  viability, T/C: 99.3%
[26]
  viability, T/C: 101%
[27]
  viability, T/C: 116%
[28]
  viability, T/C: 114%
[29]
  viability, T/C: 92.9%
[30]
  viability, T/C: 80%
[31]
  viability, T/C: 120%
[32]
  viability, T/C: 99.2%
[33]
  viability, T/C: 111%
[34]
  viability, T/C: 118%
[35]
  viability, T/C: 97.5%
[36]
  viability, T/C: 81.4%

## Nc1ccn(C2OC(CO)C(O)C2(F)F)c(=O)n1 (stereo unspecified) + Cc1cccc(N(C)C(=O)C2C(O)CCN2c2nc(C)cc(C(F)(F)F)c2C#N)c1
Second compound 0.0316 µM
  IC50: 0.0653 µM
Second compound 0.1 µM
  IC50: 0.0737 µM
Second compound 0.316 µM
  IC50: 0.0742 µM
Second compound 1 µM
  IC50: 0.0787 µM
Second compound 3.16 µM
  IC50: 0.0418 µM
Second compound 10 µM
  IC50: 0.0764 µM
[1]
  viability, T/C: 66.5%
[2]
  viability, T/C: 41.4%
[3]
  viability, T/C: 31.7%
[4]
  viability, T/C: 37.7%
[5]
  viability, T/C: 40.8%
[6]
  viability, T/C: 36.6%
[7]
  viability, T/C: 66%
[8]
  viability, T/C: 43.7%
[9]
  viability, T/C: 46.8%
[10]
  viability, T/C: 38%
[11]
  viability, T/C: 42.8%
[12]
  viability, T/C: 43.5%
[13]
  viability, T/C: 70.5%
[14]
  viability, T/C: 42.3%
[15]
  viability, T/C: 41.2%
[16]
  viability, T/C: 42%
[17]
  viability, T/C: 35.2%
[18]
  viability, T/C: 35.8%
[19]
  viability, T/C: 76.9%
[20]
  viability, T/C: 44.1%
[21]
  viability, T/C: 33.5%
[22]
  viability, T/C: 33.7%
[23]
  viability, T/C: 49.9%
[24]
  viability, T/C: 40.3%
[25]
  viability, T/C: 59.1%
[26]
  viability, T/C: 43%
[27]
  viability, T/C: 37.1%
[28]
  viability, T/C: 41.1%
[29]
  viability, T/C: 42.5%
[30]
  viability, T/C: 37.6%
[31]
  viability, T/C: 72.8%
[32]
  viability, T/C: 44.2%
[33]
  viability, T/C: 34.1%
[34]
  viability, T/C: 39.8%
[35]
  viability, T/C: 32.9%
[36]
  viability, T/C: 48.1%
